Reference: patent publication US20230414778A1, “COMBINATION OF ANTIBODY-DRUG CONJUGATE WITH ANTI-SIRPalpha ANTIBODY” (DAIICHI SANKYO COMPANY, LIMITED, priority 2020, published 2023)

What was measured:
CT26.WT cells = test: Evaluation of in vivo ICD induction (vaccination effect, re-challenge); parameters: species or system BALB/c mice; settings: mice inoculated with drug-treated CT26.WT cells, n=6
Method: Cells of mouse colorectal cancer cell line CT26.WT were seeded in a cell-culture flask and cultured overnight. The supernatant was removed and the cells were washed twice with PBS. To induce ICD, compound (A) (4 μM) or MTX (1 μM) was added in a RPMI1640 culture solution containing 10% FBS (R10). Twenty four hours later, HMGB1 in the culture supernatant was measured in accordance with the method shown in Example 1 in order to confirm ICD induction.
For evaluating in vivo ICD, the culture supernatant was removed from each of the culture flasks treated with drugs and the cells were washed twice with PBS, and then cells were collected. The supernatant was removed and the cells were washed once with PBS to prepare a suspension containing 5.0×10^6 cells/mL. As a control, a suspension was prepared by adding CT26.WT cells, which were cultured in a RPMI1640 culture solution containing 10% FBS without a drug, in an amount of 5.0×10^6 cells/mL, in the same manner as above. After centrifugation, the supernatant was removed. The cells were subjected to a freeze-thaw process repeatedly three times and suspended again in PBS to obtain Necrotic cell death (NCD) cells.
The cells (5.0×10^6 cells) of each group mentioned above were subcutaneously inoculated into the right axilla of each of female 6 week-old BALB/c mice (BALB/c AnNCrlCrlj) (bred by CHARLES RIVER LABORATORIES JAPAN, INC.) (inoculation, Day 0). An anti-SIRPα antibody (clone: 5C12) or an anti-CD47 antibody (clone: MIAP410, manufactured by Bio X Cell, Inc.) was intraperitoneally administered at a dose of 10 mg/kg on Day 1 and 5 (two times in total). As a control, the same amount of PBS was administered. Seven days later, CT26.WT cells (3.0×10^6 cells) not treated with a drug were subcutaneously inoculated into the left axilla of each of the mice (re-challenge, Day 0). On Day 14, tumor volumes were measured to evaluate vaccination effect. Note that the number of mice per group was 6. The results of the NCD-PBS group and individual groups were compared in accordance with the Dunnett's test, P value was expressed to four decimal places. The results satisfying P<0.05 (two-sided test) were determined as being significant.

[1] = tested on: mouse colorectal cancer cell line CT26.WT; test: ICD induction evaluation (in vitro): Calreticulin (CRT) on cell surface by flow cytometry; assay type: cell-based; settings: CT26.WT after 24 hours; compound (A) 4 μM, MTX 1 μM; adjusted MFI
Method: In cancer cells treated with different compounds, the expression level of Calreticulin (CRT), which serves as an index of Immunogenic cell death (ICD), was measured. Cells of mouse colorectal cancer cell line CT26.WT were seeded in a 6-well plate and cultured overnight. After the supernatant was removed, the cells were washed twice with PBS. In RPMI1640 culture solution containing 10% FBS (R10), compound (A), (4 μM) or Mitoxantrone (MTX) (1 μM) was added. As a control, DMSO was added in the same amount as that of compound (A) (R10-DMSO). After completion of drug treatment, CT26.WT cells were collected and suspended in PBS, and then, seeded in a 96-well (round bottom) plate at 1×10^6 cells/well. […] The expression level of CRT on the cancer cells was measured by flow cytometry (FACS CantoII: manufactured by Becton, Dickinson and Company). Data were analyzed by FlowJo (manufactured by TreeStar Inc). Note that, LIVE/DEAD Fixable Violet-positive cells were determined as dead cells and excluded from the analysis. The mean fluorescence intensity (MFI) of CRT was calculated. The value, which was obtained by subtracting the MFI of the cells treated with Isotype control from the MFI of stained cells, was determined as the adjusted MFI. […] The results satisfying P<0.05 (two-sided test) were determined as being significant (***: P<0.001, **: P<0.01).

[2] = tested on: cells treated with compound (A); settings: Clin. Invest. 2020: 130(1): 374-388; cited from earlier work
[3] = PBS administration, re-challenge, Day 14
[4] = plus anti-SIRPα antibody (clone 5C12) 10 mg/kg i.p. Day 1 and 5

Compound | number of CR individuals (engraftment of re-challenged tumor rejected) (CT26.WT cells; [3]) | number of CR individuals (engraftment of re-challenged tumor rejected) (CT26.WT cells; [4]) | CRT expression on cell surface relative to control group [1] | HMGB1 release from treated cells [2] | number of CR individuals (engraftment of re-challenged tumor rejected) (CT26.WT cells; plus anti-CD47 antibody (clone MIAP410) 10 mg/kg i.p. Day 1 and 5)
O=C1c2c(O)ccc(O)c2C(=O)c2c(NCCNCCO)ccc(NCCNCCO)c21 [MTX, Mitoxantrone, reference compound] | 2/6 | 4/6 | about 2.6 times | – | –
CC[C@@]1(O)C(=O)OCc2c1cc1n(c2=O)Cc2c-1nc1cc(F)c(C)c3c1c2[C@@H](NC(=O)CO)CC3 [compound (A)] | 5/6 | all cases show CR | about 12.7 times | released | all cases show CR
